Data: US20100041089A1, “IMPROVED METHOD FOR DETECTING CHEMICAL […]” (priority 2006, published 2010)

Test system: yeast genes (expressed mRNA)
Test: DNA chip measurement of expressed mRNA of yeast genes after culture with a toxic chemical substance
Format: cell-based, Saccharomyces cerevisiae S288C
Conditions: for level of expressed mRNA in the presence of chemical substance / level in the absence of chemical substance: cultured two hours with the chemical substance; for The level of expressed mRNA in the presence of chemical substance/The level of expressed mRNA in the absence of chemical substance: cultured two hours with substance
Procedure: Yeast (Saccharomyces cerevisiae S288C (a SUC2mal mel gap2 CUP1)) were cultured at 25° C. on YPD medium (yeast extract 1%, polypeptone 2%, glucose 2%). One of toxic chemical substances was added to the cell at logarithmic growth phase, and the cell was further cultured for two hours. Cell was cultured without any chemical substance in the same condition, and was used as a control. Concentrations of the chemical substances were defined to inhibit the growth of the yeast but not lead to death.
After the completion of cultivation, the culture was centrifuged to collect the cells. To the cells, sodium acetate buffer (50 mM sodium acetate, 10 mM EDTA, 1% SDS) was added, and the mixture was shaken at 65° C. for five minutes, followed by returning to room temperature, and obtaining the supernatant, which procedure was repeated two times. To the supernatant, ½ amount of a solution of phenol/chloroform (1:1) was added, and the mixture was centrifuged to give a supernatant, an equal amount of chloroform was added, and the mixture was centrifuged to give a supernatant. To the supernatant, an equal amount of isopropanol containing 0.3 M sodium acetate was added, and the mixture was allowed to stand at room temperature for 30 minutes, after which the mixture was centrifuged to give sediment of the whole RNAs. Seventy % ethanol was added to the sediment, and the mixture was again centrifuged to give sediment, which was then dried and dissolved in water. mRNA was isolated from the whole RNAs as followings. In view of the fact that a poly A chain is attached to the 3′ terminus of mRNA, a polynucleotide having a poly T structure which was immobilized on the surface of latex beads was used to trap the mRNA, and then the mRNA was washed and eluted with spine column (Oligotex-dT30<Super>mRNA Purification Kit, Takara). Reverse transcription of the mRNA was conducted with a reverse transcriptase (Super Script II Reverse Transcriptase; catalogue No. 18064-014, GibcoBRL) using fluorescence-labeled nucleotides to give cDNAs that were introduced with Cy3-dUTP or Cy5-dUTP during the reverse transcription.
The labeled cDNAs were dissolved in TE buffer (10 mM Tris-HCl/1 mM EDTA, pH 8.0), and the solution was dropped on the DNA chip containing the whole genes of yeast (DNA Chip Research Inc. Japan) so that the cDNAs were hybridized on the DNA chip at 65° C. for over 12 hours. The fluoresces intensity of the DNA chip was read with a scanner, and the ratio relative to the fluorescence intensity resulting from the absence of chemical substance was estimated as the following, which is shown in Tables 1 to 9.
In the Tables, “Intensity” indicated in the rightmost column is a value of the level of expressed mRNA of each gene in control cells as divided by the average level of the expressions of the whole genes. A gene of which mRNA level is lower in control, and is higher in cases of addition of chemical substance, is especially useful in the detection of toxic substances.
Here, when a ratio of an amount of mRNA expressed in the presence of the chemical substance to an amount of mRNA expressed in the absence of the chemical substance is two or more, then it is considered significant.

In the case of `CCCCCCCCCCCCc1ccc(S(=O)(=O)[O-])cc1.[Na+]` [(17), Sodium dodecylbenzosulfonate], the “level of expressed mRNA in the presence of chemical substance / level in the absence of chemical substance” value (yeast gene YDR128W) is reported as 0.9, the “level of expressed mRNA in the presence of chemical substance / level in the absence of chemical substance” value (yeast gene YDR133C) is reported as 0.6 and the “level of expressed mRNA in the presence of chemical substance / level in the absence of chemical substance” value (yeast gene YDR250C) is reported as 0.9. The “level of expressed mRNA in the presence of chemical substance / level in the absence of chemical substance” value (yeast gene YDR278C) was 0.7, the “level of expressed mRNA in the presence of chemical substance / level in the absence of chemical substance” value (yeast gene YDR281C) was 1.5 and the “The level of expressed mRNA in the presence of chemical substance/The level of expressed mRNA in the absence of chemical substance” value (yeast gene YDR330W) was 1.5. The “level of expressed mRNA in the presence of chemical substance / level in the absence of chemical substance” value (yeast gene YDR366C) was 1.2, the “The level of expressed mRNA in the presence of chemical substance/The level of expressed mRNA in the absence of chemical substance” value (yeast gene YDR411C) was 1.5 and the “The level of expressed mRNA in the presence of chemical substance/The level of expressed mRNA in the absence of chemical substance” value (yeast gene YDR511W) was 1.3. For the same molecule, the “The level of expressed mRNA in the presence of chemical substance/The level of expressed mRNA in the absence of chemical substance” value (yeast gene YDR545W) was 0.9, the “The level of expressed mRNA in the presence of chemical substance/The level of expressed mRNA in the absence of chemical substance” value (yeast gene YEL001C) was 0.7 and the “The level of expressed mRNA in the presence of chemical substance/The level of expressed mRNA in the absence of chemical substance” value (yeast gene YER004W) was 1.4. For the same molecule, the “The level of expressed mRNA in the presence of chemical substance/The level of expressed mRNA in the absence of chemical substance” value (yeast gene YER035W) was 2.2, the “The level of expressed mRNA in the presence of chemical substance/The level of expressed mRNA in the absence of chemical substance” value (yeast gene YER079W) was 1.0 and the “The level of expressed mRNA in the presence of chemical substance/The level of expressed mRNA in the absence of chemical substance” value (yeast gene YER106W) was 0.8. The “The level of expressed mRNA in the presence of chemical substance/The level of expressed mRNA in the absence of chemical substance” value (yeast gene YER158C) was 1.6, the “The level of expressed mRNA in the presence of chemical substance/The level of expressed mRNA in the absence of chemical substance” value (yeast gene YER163C) was 1.2 and the “The level of expressed mRNA in the presence of chemical substance/The level of expressed mRNA in the absence of chemical substance” value (yeast gene YER175C) was 0.9. For the same molecule, the “The level of expressed mRNA in the presence of chemical substance/The level of expressed mRNA in the absence of chemical substance” value (yeast gene YFL006W) was 1.0, the “The level of expressed mRNA in the presence of chemical substance/The level of expressed mRNA in the absence of chemical substance” value (yeast gene YFL010C) was 1.9 and the “The level of expressed mRNA in the presence of chemical substance/The level of expressed mRNA in the absence of chemical substance” value (yeast gene YFL024C) was 0.9. For the same molecule, the “The level of expressed mRNA in the presence of chemical substance/The level of expressed mRNA in the absence of chemical substance” value (yeast gene YFL032W) was 1.7, the “level of expressed mRNA in the presence of chemical substance / level in the absence of chemical substance” value (yeast gene YFR026C) was 1.1 and the “The level of expressed mRNA in the presence of chemical substance/The level of expressed mRNA in the absence of chemical substance” value (yeast gene YGL037C) was 1.3. For the same molecule, the “The level of expressed mRNA in the presence of chemical substance/The level of expressed mRNA in the absence of chemical substance” value (yeast gene YGL047W) was 1.1, the “The level of expressed mRNA in the presence of chemical substance/The level of expressed mRNA in the absence of chemical substance” value (yeast gene YGL053W) was 2.2 and the “level of expressed mRNA in the presence of chemical substance / level in the absence of chemical substance” value (yeast gene YGL088W) was 0.5. The “The level of expressed mRNA in the presence of chemical substance/The level of expressed mRNA in the absence of chemical substance” value (yeast gene YGL121C) was 2.7, the “The level of expressed mRNA in the presence of chemical substance/The level of expressed mRNA in the absence of chemical substance” value (yeast gene YGL199C) was 1.2 and the “level of expressed mRNA in the presence of chemical substance / level in the absence of chemical substance” value (yeast gene YGR038W) was 1.1. The “The level of expressed mRNA in the presence of chemical substance/The level of expressed mRNA in the absence of chemical substance” value (yeast gene YGR101W) was 1.0, the “The level of expressed mRNA in the presence of chemical substance/The level of expressed mRNA in the absence of chemical substance” value (yeast gene YGR110W) was 0.9 and the “The level of expressed mRNA in the presence of chemical substance/The level of expressed mRNA in the absence of chemical substance” value (yeast gene YGR130C) was 1.3. For the same molecule, the “level of expressed mRNA in the presence of chemical substance / level in the absence of chemical substance” value (yeast gene YGR139W) was 1.0, the “The level of expressed mRNA in the presence of chemical substance/The level of expressed mRNA in the absence of chemical substance” value (yeast gene YGR154C) was 1.0 and the “The level of expressed mRNA in the presence of chemical substance/The level of expressed mRNA in the absence of chemical substance” value (yeast gene YGR221C) was 1.3. The “level of expressed mRNA in the presence of chemical substance / level in the absence of chemical substance” value (yeast gene YGR243W) was 2.1, the “level of expressed mRNA in the presence of chemical substance / level in the absence of chemical substance” value (yeast gene YGR293C) was 0.8 and the “level of expressed mRNA in the presence of chemical substance / level in the absence of chemical substance” value (yeast gene YHL006C) was 1.1. The “level of expressed mRNA in the presence of chemical substance / level in the absence of chemical substance” value (yeast gene YHR095W) was 0.8, the “level of expressed mRNA in the presence of chemical substance / level in the absence of chemical substance” value (yeast gene YHR105W) was 1.0 and the “The level of expressed mRNA in the presence of chemical substance/The level of expressed mRNA in the absence of chemical substance” value (yeast gene YHR138C) was 5.0. The “level of expressed mRNA in the presence of chemical substance / level in the absence of chemical substance” value (yeast gene YHR181W) was 0.9, the “The level of expressed mRNA in the presence of chemical substance/The level of expressed mRNA in the absence of chemical substance” value (yeast gene YHR199C) was 1.1 and the “The level of expressed mRNA in the presence of chemical substance/The level of expressed mRNA in the absence of chemical substance” value (yeast gene YIL023C) was 1.2. The “The level of expressed mRNA in the presence of chemical substance/The level of expressed mRNA in the absence of chemical substance” value (yeast gene YIL041W) was 0.8, the “The level of expressed mRNA in the presence of chemical substance/The level of expressed mRNA in the absence of chemical substance” value (yeast gene YIL087C) was 1.7 and the “level of expressed mRNA in the presence of chemical substance / level in the absence of chemical substance” value (yeast gene YIL127C) was 0.7. The “level of expressed mRNA in the presence of chemical substance / level in the absence of chemical substance” value (yeast gene YJL017W) was 1.0, the “level of expressed mRNA in the presence of chemical substance / level in the absence of chemical substance” value (yeast gene YJL037W) was 1.3 and the “The level of expressed mRNA in the presence of chemical substance/The level of expressed mRNA in the absence of chemical substance” value (yeast gene YJL057C) was 1.4. For the same molecule, the “The level of expressed mRNA in the presence of chemical substance/The level of expressed mRNA in the absence of chemical substance” value (yeast gene YJL066C) was 1.4 and the “The level of expressed mRNA in the presence of chemical substance/The level of expressed mRNA in the absence of chemical substance” value (yeast gene YJL082W) was 0.6.
